# Test results from patent US7265120B2, “Pyrazine derivatives and pharmaceutical use thereof” (Astellas Pharma Inc., priority 2004, dated 2007).
# Columns and labels:
# [1] = test system: ddY mice; assay: Anticatalepsy activity in mouse (haloperidol-induced catalepsy, bar test); assay type: in vivo; conditions: 3.2 mg/kg orally, ddY mice n=7; haloperidol 0.32 mg/kg i.p. 30 min after compound; measured 30 min after injection, up to 30 sec
# Method: Test 2: Anticatalepsy Activity in Mouse [I] Test Method
# The test compound (3.2 mg/kg) was administered orally with ddY mice (n=7). Then, haloperidol (0.32 mg/kg) was injected intraperitoneally 30 min. after the administration of the compound. Thirty min. after the injection, the cataleptic responses of mice were measured. The forelimbs of each mouse were placed on a 3 cm high, 3 mm wide horizontal bar, and the duration of cataleptic posture was measured for up to 30 sec.
# [2] = target: human A2a receptor (Homo sapiens, UniProt P29274); assay: Adenosine antagonistic activity, radioligand binding ([3H]CGS 21680); conditions: [3H]CGS 21680 20 nM
# Method: (§1) Test 1: Adenosine Antagonistic Activity
# (§2) The adenosine antagonistic activity [Ki (nM)] of the test compound was examined by radioligand binding techniques using 8-cyclopentyl-1,3-dipropylxanthine, [dipropyl-2,3-^3H(N)] ([^3H]DPCPX, 4.5 nM) for human A1 receptor and [^3H]CGS 21680 (20 nM) for human A2a receptor.
# [3] = target: T1, human A1 receptor (Homo sapiens, UniProt P30542); assay: Adenosine antagonistic activity, radioligand binding ([3H]DPCPX); conditions: [3H]DPCPX 4.5 nM
# T1 sequence (P30542 1-326): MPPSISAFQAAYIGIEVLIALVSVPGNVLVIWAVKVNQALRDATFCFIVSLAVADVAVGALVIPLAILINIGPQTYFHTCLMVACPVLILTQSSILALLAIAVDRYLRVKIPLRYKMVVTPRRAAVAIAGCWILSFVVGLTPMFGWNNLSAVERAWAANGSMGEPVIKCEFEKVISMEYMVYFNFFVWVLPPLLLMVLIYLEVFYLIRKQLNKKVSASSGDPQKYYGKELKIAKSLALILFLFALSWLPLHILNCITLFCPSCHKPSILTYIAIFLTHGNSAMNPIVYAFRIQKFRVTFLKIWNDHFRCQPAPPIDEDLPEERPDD
# Method: as §1, §2
# Chain of human A2a receptor (P29274 whole entry): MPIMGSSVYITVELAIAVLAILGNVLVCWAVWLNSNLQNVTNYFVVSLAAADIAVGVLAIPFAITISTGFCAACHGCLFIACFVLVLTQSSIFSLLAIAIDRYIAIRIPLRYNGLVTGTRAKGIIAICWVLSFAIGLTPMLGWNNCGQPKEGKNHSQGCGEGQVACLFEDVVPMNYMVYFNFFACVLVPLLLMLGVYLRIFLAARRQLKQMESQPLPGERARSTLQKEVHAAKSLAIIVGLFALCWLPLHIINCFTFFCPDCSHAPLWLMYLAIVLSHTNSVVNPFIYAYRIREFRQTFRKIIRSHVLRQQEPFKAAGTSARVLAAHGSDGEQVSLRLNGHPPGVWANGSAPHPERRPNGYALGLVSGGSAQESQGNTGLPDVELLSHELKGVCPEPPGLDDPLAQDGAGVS
SMILES,melting point [°C],Ki [2] [nM],Ki [3] [nM],Manifestation rate of Catalepsy (number of mouse) [1]
"CCCCOc1nc(-c2ccc(=O)n(C)n2)c(-c2ccccc2)nc1N [Example 179, 6-(5-amino-6-butoxy-3-phenyl-2-pyrazinyl)-2-methyl-3(2H)-pyridazinone]",143 to 144,1.57,16.4,1/7
"CC(C)n1nc(-c2ncc(N)nc2-c2ccc(F)cc2)ccc1=O [Example 36, 6-[5-Amino-3-(4-fluorophenyl)-2-pyrazinyl]-2-isopropyl-3(2H)-pyridazinone]",–,6.89,23,0/7
"CC(C)n1nc(-c2nc(Cl)c(N)nc2-c2ccc(F)cc2)ccc1=O [Example 37, 6-[5-Amino-6-chloro-3-(4-fluorophenyl)-2-pyrazinyl]-2-isopropyl-3(2H)-pyridazinone]",–,2.65,15.9,0/7
"CC(C)n1nc(-c2nc(Br)c(N=S(C)C)nc2-c2ccccc2)ccc1=O [Example 66, 6-{6-bromo-5-[(dimethyl-lambda˜4˜-sulfanylidene)amino]-3-phenyl-2-pyrazinyl}-2-isopropyl-3(2H)-pyridazinone]",220 to 224,6.79,16,1/7
"Cn1nc(-c2nc(-n3cccn3)c(N)nc2-c2ccccc2)ccc1=O [Example 153, 6-[5-amino-3-phenyl-6-(1H-pyrazol-1-yl)-2-pyrazinyl]-2-methyl-3(2H)-pyridazinone]",187 to 189.5,4.95,18.9,2/7
"COC1CCN(c2nc(-c3ccc(=O)n(C(C)C)n3)c(-c3ccccc3)nc2N)CC1 [Example 110, 6-[5-amino-6-(4-methoxy-1-piperidinyl)-3-phenyl-2-pyrazinyl]-2-isopropyl-3(2H)-pyridazinone]",179 to 181,–,–,–

# More lines, main results first:
melting point [°C],Ki [2] [nM],Ki [3] [nM],SMILES,Manifestation rate of Catalepsy (number of mouse) [1]
150 to 151,0.42,1.35,"CC(C)n1nc(-c2nc(OCc3ccccn3)c(N)nc2-c2ccccc2)ccc1=O [Example 163, 6-[5-amino-3-phenyl-6-(2-pyridylmethoxy)-2-pyrazinyl]-2-isopropyl-3(2H)-pyridazinone]",2/7
158 to 159.5,1.49,13.2,"Cn1nc(-c2nc(OCc3ccco3)c(N)nc2-c2ccccc2)ccc1=O [Example 184, 6-[5-amino-6-(2-furylmethoxy)-3-phenyl-2-pyrazinyl]-2-methyl-3(2H)-pyridazinone]",2/7
> 250,0.25,0.72,"CC(C)n1nc(-c2nc(C#Cc3cncn3C)c(N)nc2-c2ccccc2)ccc1=O [Example 75, 6-{5-amino-6-[(1-methyl-1H-imidazol-5-yl)ethynyl]-3-phenyl-2-pyrazinyl}-2-isopropyl-3(2H)-pyridazinone]",0/7
> 250,1.72,11.2,"Cn1nc(-c2nc(C#N)c(N)nc2-c2ccccc2)ccc1=O [Example 17, 3-Amino-6-(1-methyl-6-oxo-1,6-dihydro-3-pyridazinyl)-5-phenyl-2-pyrazinecarbonitrile]",0/7
206.5 to 209,2.6,6.66,"CC(C)n1nc(-c2nc(NCc3ccco3)c(N)nc2-c2ccccc2)ccc1=O [Example 134, 6-{5-amino-6-[(2-furylmethyl)amino]-3-phenyl-2-pyrazinyl}-2-isopropyl-3(2H)-pyridazinone]",1/7
239 to 241,0.29,0.88,"CC(C)n1nc(-c2nc(C#Cc3ccccc3)c(N)nc2-c2ccccc2)ccc1=O [Example 70, 6-[5-amino-3-phenyl-6-(phenylethynyl)-2-pyrazinyl]-2-isopropyl-3(2H)-pyridazinone]",0/7
